Key:
[1] = Amount of salicylic acid in rat brain tissue (blood-brain barrier), 0.5 mmol/kg; assay type: in vivo, rats
Description: 30, 60, 120, 240, 480 minutes after the test compound was administrated, rats were decapitated and were perfused with normal Krebs-Henseleit buffer (with Heparin Sodium, pH7.4) (10 mL/min) to remove blood. […] The mixture was centrifuged for 5 minutes at 16,000 rpm. The supernatant (2 ml) was collected and evaporated to dryness.

[2] = tested on: rats given sterilized E. coli suspension as a pyrogen; test: Antipyretic activity of aspirin and its HPC (Study B); assay type: in vivo; settings: for body temperature: in °C (unit assumed)
Description: […] Group A was the control group. The body temperature of rats was taken at 90 min. intervals before and after the administration of the test compounds.

[3] = tested on: SLAC/MRL/LPR mice; test: Lupus in MRL/LPR mice treated from 16 weeks old, 30 mg/kg (10% aq.) on back skin twice per day; assay type: in vivo
Description: . Progression of lupus was monitored once a week by measurement of hematuria, body weight and survival rate. The experiments were carried out in two groups of mice. One group of mice were 8 weeks old and had not shown SLE characteristics (Table 26a). The other group of mice were 16 weeks old, and had shown SLE characteristics (Table 26b).

CCN(CC)CCOC(=O)c1ccccc1OC(C)=O.Cl [P-1, diethylaminoethyl acetylsalicylate.HCl salt]
salicylic acid in brain tissue ([1]; intramuscularly, 30 min): 6.5 ± 2.2 nmol/g
salicylic acid in brain tissue ([1]; intramuscularly, 60 min): 8.2 ± 2.3 nmol/g
salicylic acid in brain tissue ([1]; intramuscularly, 120 min): 9.4 ± 3.1 nmol/g
salicylic acid in brain tissue ([1]; intramuscularly, 240 min): 8.5 ± 2.5 nmol/g
salicylic acid in brain tissue ([1]; intramuscularly, 480 min): 8.2 ± 2.3 nmol/g
salicylic acid in brain tissue ([1]; transdermally, 30 min): 3.1 ± 1.1 nmol/g
salicylic acid in brain tissue ([1]; transdermally, 60 min): 6.3 ± 2.3 nmol/g
salicylic acid in brain tissue ([1]; transdermally, 120 min): 8.2 ± 3.5 nmol/g
salicylic acid in brain tissue ([1]; transdermally, 240 min): 9.3 ± 3.3 nmol/g
salicylic acid in brain tissue ([1]; transdermally, 480 min): 9.5 ± 4.2 nmol/g
antipyretic activity ([2]; 20 mg/kg, oral administration): almost the same antipyretic activity as 100 mg/kg of aspirin
body temperature ([2]; 20 mg/kg, orally, t = 0 min.): 37.6 ± 0.3
body temperature ([2]; 20 mg/kg, orally, t = 90 min.): 37.1 ± 0.4
body temperature ([2]; 20 mg/kg, orally, t = 180 min.): 36.8 ± 0.2
body temperature ([2]; 20 mg/kg, orally, t = 270 min.): 36.5 ± 0.3
body temperature ([2]; 50 mg/kg, orally, t = 0 min.): 37.6 ± 0.3
body temperature ([2]; 50 mg/kg, orally, t = 90 min.): 36.7 ± 0.3
body temperature ([2]; 50 mg/kg, orally, t = 180 min.): 36.5 ± 0.2
body temperature ([2]; 50 mg/kg, orally, t = 270 min.): 36.4 ± 0.3
body temperature ([2]; 100 mg/kg, orally, t = 0 min.): 37.6 ± 0.4
body temperature ([2]; 100 mg/kg, orally, t = 90 min.): 36.6 ± 0.4
body temperature ([2]; 100 mg/kg, orally, t = 180 min.): 36.5 ± 0.3
body temperature ([2]; 100 mg/kg, orally, t = 270 min.): 36.4 ± 0.3
body temperature ([2]; groups H/I, 50 mg/kg, transdermally, t = 0 min.): 37.5 ± 0.3
body temperature ([2]; groups H/I, 50 mg/kg, transdermally, t = 90 min.): 36.5 ± 0.2
body temperature ([2]; groups H/I, 50 mg/kg, transdermally, t = 180 min.): 36.3 ± 0.3
body temperature ([2]; groups H/I, 50 mg/kg, transdermally, t = 270 min.): 36.4 ± 0.2
body temperature ([2]; groups J/K, 20 mg/kg, transdermally, t = 0 min.): 37.5 ± 0.4
body temperature ([2]; groups J/K, 20 mg/kg, transdermally, t = 90 min.): 36.7 ± 0.2
body temperature ([2]; groups J/K, 20 mg/kg, transdermally, t = 180 min.): 36.4 ± 0.2
body temperature ([2]; groups J/K, 20 mg/kg, transdermally, t = 270 min.): 36.4 ± 0.2
body temperature ([2]; groups L/M, 20 mg/kg, transdermally, t = 0 min.): 37.6 ± 0.2
body temperature ([2]; groups L/M, 20 mg/kg, transdermally, t = 90 min.): 36.5 ± 0.4
body temperature ([2]; groups L/M, 20 mg/kg, transdermally, t = 180 min.): 36.4 ± 0.3
body temperature ([2]; groups L/M, 20 mg/kg, transdermally, t = 270 min.): 36.5 ± 0.2
Body Weight ([3]; week 16): 42.6 ± 2.1 g
Hematuria (0-4) ([3]; week 16): 1.70 ± 0.26
Survival Rate ([3]; week 16): 10/10
Body Weight ([3]; week 17): 44.2 ± 2.0 g
Hematuria (0-4) ([3]; week 17): 1.50 ± 0.17
Survival Rate ([3]; week 17): 10/10
Body Weight ([3]; week 18): 46.6 ± 2.4 g
Hematuria (0-4) ([3]; week 18): 1.30 ± 0.15
Survival Rate ([3]; week 18): 10/10
Body Weight ([3]; week 19): 47.9 ± 2.5 g
Hematuria (0-4) ([3]; week 19): 0.80 ± 0.13
Survival Rate ([3]; week 19): 10/10
Body Weight ([3]; week 20): 46.8 ± 2.0 g
Hematuria (0-4) ([3]; week 20): 0.80 ± 0.13
Survival Rate ([3]; week 20): 10/10
Body Weight ([3]; week 21): 47.2 ± 2.2 g
Hematuria (0-4) ([3]; week 21): 0.80 ± 0.13
Survival Rate ([3]; week 21): 10/10
Body Weight ([3]; week 22): 47.6 ± 1.9 g
Hematuria (0-4) ([3]; week 22): 0.80 ± 0.20
Survival Rate ([3]; week 22): 10/10
Body Weight ([3]; week 23): 47.1 ± 2.3 g
Hematuria (0-4) ([3]; week 23): 0.80 ± 0.20
Survival Rate ([3]; week 23): 10/10
Body Weight ([3]; week 24): 46.8 ± 2.1 g
Hematuria (0-4) ([3]; week 24): 0.80 ± 0.20
Survival Rate ([3]; week 24): 10/10
Body Weight ([3]; week 25): 47.2 ± 2.0 g
Hematuria (0-4) ([3]; week 25): 0.70 ± 0.15
Survival Rate ([3]; week 25): 10/10
Body Weight ([3]; week 26): 46.9 ± 2.6 g
Hematuria (0-4) ([3]; week 26): 0.70 ± 0.15
Survival Rate ([3]; week 26): 10/10
Body Weight ([3]; week 27): 47.3 ± 2.0 g
Hematuria (0-4) ([3]; week 27): 0.60 ± 0.22
Survival Rate ([3]; week 27): 10/10
Body Weight ([3]; week 28): 47.6 ± 2.4 g
Hematuria (0-4) ([3]; week 28): 0.70 ± 0.15
Survival Rate ([3]; week 28): 10/10
Body Weight ([3]; week 29): 47.2 ± 2.5 g
Hematuria (0-4) ([3]; week 29): 0.70 ± 0.15
Survival Rate ([3]; week 29): 10/10
Body Weight ([3]; week 30): 46.4 ± 2.1 g
Hematuria (0-4) ([3]; week 30): 0.60 ± 0.22
Survival Rate ([3]; week 30): 10/10
Body Weight ([3]; week 31): 47.1 ± 2.2 g
Hematuria (0-4) ([3]; week 31): 0.80 ± 0.20
Survival Rate ([3]; week 31): 10/10
Body Weight ([3]; week 32): 46.6 ± 2.4 g
Hematuria (0-4) ([3]; week 32): 0.70 ± 0.15
Survival Rate ([3]; week 32): 10/10
Body Weight ([3]; week 33): 47.3 ± 2.1 g
Hematuria (0-4) ([3]; week 33): 0.50 ± 0.17
Survival Rate ([3]; week 33): 10/10
Body Weight ([3]; week 34): 47.6 ± 2.0 g
Hematuria (0-4) ([3]; week 34): 0.70 ± 0.15
Survival Rate ([3]; week 34): 10/10
Body Weight ([3]; week 35): 47.2 ± 2.0 g
Hematuria (0-4) ([3]; week 35): 0.70 ± 0.15
Survival Rate ([3]; week 35): 10/10
Body Weight ([3]; week 36): 46.9 ± 2.1 g
Hematuria (0-4) ([3]; week 36): 0.50 ± 0.17
Survival Rate ([3]; week 36): 10/10
Body Weight ([3]; week 37): 47.4 ± 2.7 g
Hematuria (0-4) ([3]; week 37): 0.70 ± 0.15
Survival Rate ([3]; week 37): 10/10
Body Weight ([3]; week 38): 46.9 ± 2.3 g
Hematuria (0-4) ([3]; week 38): 0.60 ± 0.22
Survival Rate ([3]; week 38): 10/10
Body Weight ([3]; week 39): 47.2 ± 2.0 g
Hematuria (0-4) ([3]; week 39): 0.50 ± 0.17
Survival Rate ([3]; week 39): 10/10
Body Weight ([3]; week 40): 47.6 ± 2.3 g
Hematuria (0-4) ([3]; week 40): 0.70 ± 0.15
Survival Rate ([3]; week 40): 10/10
Body Weight ([3]; week 41): 47.7 ± 2.2 g
Hematuria (0-4) ([3]; week 41): 0.60 ± 0.22
Survival Rate ([3]; week 41): 10/10
Body Weight ([3]; week 42): 46.9 ± 2.0 g
Hematuria (0-4) ([3]; week 42): 0.70 ± 0.15
Survival Rate ([3]; week 42): 10/10
Body Weight ([3]; week 43): 47.5 ± 2.8 g
Hematuria (0-4) ([3]; week 43): 0.60 ± 0.22
Survival Rate ([3]; week 43): 10/10
Body Weight ([3]; week 44): 47.6 ± 2.0 g
Hematuria (0-4) ([3]; week 44): 0.70 ± 0.15
Survival Rate ([3]; week 44): 10/10
Body Weight ([3]; week 45): 47.9 ± 2.5 g
Hematuria (0-4) ([3]; week 45): 0.50 ± 0.17
Survival Rate ([3]; week 45): 10/10
Body Weight ([3]; week 46): 47.6 ± 2.4 g
Hematuria (0-4) ([3]; week 46): 0.70 ± 0.15
Survival Rate ([3]; week 46): 10/10
Body Weight ([3]; week 47): 47.3 ± 2.8 g
Hematuria (0-4) ([3]; week 47): 0.60 ± 0.22
Survival Rate ([3]; week 47): 10/10
Body Weight ([3]; week 48): 46.6 ± 2.8 g
Hematuria (0-4) ([3]; week 48): 0.50 ± 0.17
Survival Rate ([3]; week 48): 10/10
Body Weight ([3]; week 49): 46.9 ± 2.1 g
Hematuria (0-4) ([3]; week 49): 0.60 ± 0.22
Survival Rate ([3]; week 49): 10/10
Body Weight ([3]; week 50): 47.1 ± 2.7 g
Hematuria (0-4) ([3]; week 50): 0.50 ± 0.17
Survival Rate ([3]; week 50): 10/10
